The target in assay [1] is CK1δ (Homo sapiens (Human), UniProt P48730). Nature of the assay: CK1δ kinase assay (Caliper LabChip, fluoresceinated peptide substrate). The format is biochemical. The note with it: 200 pM CK1δ, 50 μM ATP, 1.5 μM peptide substrate, 22 hours room temperature. The method, then: (§1) CK1ε and CK1δ Kinase Assays
(§2) The kinase assay was performed in V-bottom 384-well plates. […] The reaction was incubated at room temperature for 22 hours and terminated by adding 45 μl of 35 mM EDTA to each sample. […] Compounds were dissolved at 10 mM in dimethylsulfoxide (DMSO) and evaluated at eleven concentrations. IC50 values were derived by non-linear regression analysis.

For assay [2], the target named is CK1ε (Homo sapiens (Human), UniProt P49674). Nature of the assay: CK1ε kinase assay (Caliper LabChip, fluoresceinated peptide substrate). It is filed as biochemical. The settings on record: 200 pM CK1ε, 50 μM ATP, 1.5 μM peptide substrate, 22 hours room temperature. The method, then: as §1, §2
Sequence of CK1ε (P49674 whole entry): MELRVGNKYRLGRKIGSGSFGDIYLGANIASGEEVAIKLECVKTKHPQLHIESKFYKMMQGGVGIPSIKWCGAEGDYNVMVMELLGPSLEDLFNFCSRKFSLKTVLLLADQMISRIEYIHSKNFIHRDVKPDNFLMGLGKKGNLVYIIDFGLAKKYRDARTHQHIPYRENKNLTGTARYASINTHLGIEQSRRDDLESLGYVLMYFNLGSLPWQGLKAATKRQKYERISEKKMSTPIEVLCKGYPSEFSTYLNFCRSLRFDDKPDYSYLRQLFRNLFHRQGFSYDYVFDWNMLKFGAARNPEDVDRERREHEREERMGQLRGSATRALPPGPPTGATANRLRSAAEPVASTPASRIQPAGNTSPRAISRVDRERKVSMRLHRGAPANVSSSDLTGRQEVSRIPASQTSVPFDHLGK

Sequence of CK1δ (P48730 whole entry): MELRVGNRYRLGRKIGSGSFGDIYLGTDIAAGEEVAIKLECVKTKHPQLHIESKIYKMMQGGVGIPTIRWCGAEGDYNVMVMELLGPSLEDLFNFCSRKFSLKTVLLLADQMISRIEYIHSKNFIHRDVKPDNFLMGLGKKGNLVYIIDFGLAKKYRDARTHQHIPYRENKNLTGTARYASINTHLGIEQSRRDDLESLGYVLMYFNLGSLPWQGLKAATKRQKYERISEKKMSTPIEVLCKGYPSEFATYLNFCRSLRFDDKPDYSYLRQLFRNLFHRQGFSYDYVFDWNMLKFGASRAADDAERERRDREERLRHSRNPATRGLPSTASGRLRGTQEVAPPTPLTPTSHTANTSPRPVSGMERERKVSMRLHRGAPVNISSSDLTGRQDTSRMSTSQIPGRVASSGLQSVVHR

For the compound `Cc1nc(-c2cccnc2)sc1C(=O)Nc1cn2nc(-c3c(-c4ccc(F)cc4)nn(C)c3N3CCOCC3)ccc2n1` [Compound 146, N-(6-(3-(4-fluorophenyl)-1-methyl-5-morpholino-1H-pyrazol-4-yl)imidazo [1,2-b]pyridazin-2-yl)-4-methyl-2-(pyridin-3-yl)thiazole-5-carboxamide], the IC50 was determined as 0.5 nM in assay [1] and 4.9 nM in assay [2].

Turning to `Cn1cc(-c2ccc3nc(NC(=O)c4ccccc4)c(C#N)n3n2)c(-c2ccc(F)cc2)n1` [Compound 190, N-(3-Cyano-6-(3-(4-fluorophenyl)-1-methyl-1H-pyrazol-4-yl)imidazo[1,2-b]pyridazin-2-yl)benzamide], the concentration for half-maximal inhibition (IC50) amounted to 4.2 nM in assay [1] and 14.5 nM in assay [2].

Regarding `Cn1cc(-c2ccc3nc(NC(=O)Nc4ccccc4)cn3n2)c(-c2ccc(F)cc2)n1` [Compound 186, 1-(6-(3-(4-Fluorophenyl)-1-methyl-1H-pyrazol-4-yl)imidazo[1,2-b]pyridazin-2-yl)-3-phenylurea], the figures for the half-maximal inhibitory concentration (IC50) in assay [1] and in assay [2] were 14.6 nM and 114 nM, respectively.

As to `COCCN1CCN(c2c(-c3ccc4nc(NC(=O)c5ccnc(F)c5)cn4n3)c(-c3ccc(F)cc3)nn2C)CC1` [Compound 120, 2-Fluoro-N-(6-(3-(4-fluorophenyl)-5-(4-(2-methoxyethyl)piperazin-1-yl)-1-methyl-1H-pyrazol-4-yl)imidazo[1,2-b]pyridazin-2-yl)isonicotinamide], the half-inhibitory concentration (IC50) in assay [1] was determined as 0.73 nM; in assay [2], 18.6 nM.

As to `Cn1cc(-c2ccc3nc(NC(=O)c4ccc(CN5CCCC5)cc4)cn3n2)c(-c2ccc(F)cc2)n1` [Compound 30, N-(6-(3-(4-fluorophenyl)-1-methyl-1H-pyrazol-4-yl)imidazo[1,2-b]pyridazin-2-yl)-4-(pyrrolidin-1-ylmethyl)benzamide], the 50% inhibitory concentration (IC50) in assay [1] was 5.8 nM; in assay [2] it was 7.9 nM.

As to `Cc1ccncc1C(=O)Nc1cn2nc(-c3cn(C)nc3-c3ccc(F)cc3)ccc2n1` [Compound 73, N-(6-(3-(4-fluorophenyl)-1-methyl-1H-pyrazol-4-yl)imidazo[1,2-b]pyridazin-2-yl)-4-methylnicotinamide], the results for the half-inhibitory concentration (IC50) in assay [1] and in assay [2] were 2.6 nM and 6.4 nM, respectively.

Regarding `COc1ncccc1C(=O)Nc1cn2nc(-c3cn(C)nc3-c3ccc(F)cc3)ccc2n1` [Compound 77, N-(6-(3-(4-fluorophenyl)-1-methyl-1H-pyrazol-4-yl)imidazo[1,2-b]pyridazin-2-yl)-2-methoxynicotinamide], half-maximal inhibition in assay [1] (IC50) was put at 10.6 nM.

As to `Cn1cc(-c2ccc3nc(NC(=O)c4ccc(CCN5CCCC5)nc4)cn3n2)c(-c2ccc(F)cc2)n1` [Compound 72, N-(6-(3-(4-fluorophenyl)-1-methyl-1H-pyrazol-4-yl)imidazo[1,2-b]pyridazin-2-yl)-6-(2-(pyrrolidin-1-yl)ethyl)nicotinamide], the values for the half-maximal inhibitory concentration (IC50) in assay [1] and in assay [2] were 10 nM and 27.8 nM, respectively.

In the case of `COc1cc(C(=O)Nc2cn3nc(-c4cn(C)nc4-c4ccc(F)cc4)ccc3n2)nc(OC)n1` [Compound 39, N-(6-(3-(4-fluorophenyl)-1-methyl-1H-pyrazol-4-yl)imidazo[1,2-b]pyridazin-2-yl)-2,6-dimethoxypyrimidine-4-carboxamide], the IC50 in assay [2] was found to be 75.7 nM.

With `Cn1nc(-c2ccc(F)cc2)c(-c2ccc3nc(NC(=O)c4ccnc(F)c4)cn3n2)c1C1CCN(C(=O)c2ccon2)CC1` [Compound 153, 2-fluoro-N-(6-(3-(4-fluorophenyl)-5-(1-(isoxazole-3-carbonyl)piperidin-4-yl)-1-methyl-1H-pyrazol-4-yl)imidazo[1,2-b]pyridazin-2-yl)isonicotinamide], the IC50 in assay [1] worked out at 0.3 nM; in assay [2], 2.2 nM.

For the compound `Cc1nc(-c2ccccn2)sc1C(=O)Nc1cn2nc(-c3cn(C4CC4)nc3-c3ccc(F)cc3)ccc2n1` [Compound 110, N-(6-(1-cyclopropyl-3-(4-fluorophenyl)-1H-pyrazol-4-yl)imidazo[1,2-b]pyridazin-2-yl)-4-methyl-2-(pyridin-2-yl)thiazole-5-carboxamide], the half-inhibitory concentration (IC50) amounted to 5.5 nM in assay [1] and 28.8 nM in assay [2].

`Cn1nc(-c2ccc(F)cc2)c(-c2ccc3nc(NC(=O)c4ccnc(F)c4)cn3n2)c1C1CCNCC1` [Compound 148, 2-Fluoro-N-(6-(3-(4-fluorophenyl)-1-methyl-5-(piperidin-4-yl)-1H-pyrazol-4-yl)imidazo[1,2-b]pyridazin-2-yl)isonicotinamide]: the results for the IC50 in assay [1] and in assay [2] were 2.1 nM and 2.6 nM, respectively.

Regarding `Cn1cc(-c2ccc3nc(NC(=O)c4ccncc4)cn3n2)c(-c2ccc(F)cc2)n1` [Compound 1, N-(6-(3-(4-Fluorophenyl)-1-methyl-1H-pyrazol-4-yl)imidazo[1,2-b]pyridazin-2-yl)isonicotinamide], the figures for the IC50 in assay [1] and in assay [2] were 5.2 nM and 7.4 nM, respectively.

`CN1CCC(C(=O)Nc2cn3nc(-c4cn(C)nc4-c4ccc(F)cc4)ccc3n2)CC1` [Compound 90, N-(6-(3-(4-fluorophenyl)-1-methyl-1H-pyrazol-4-yl)imidazo[1,2-b]pyridazin-2-yl)-1-methylpiepridine-4-carboxamide] registered a half-maximal inhibitory concentration (IC50) in assay [2] of 135 nM.

On to `Cn1nc(-c2ccc(F)cc2)c(-c2ccc3nc(NC(=O)c4ccnc(F)c4)cn3n2)c1N1CCOCC1` [Compound 143, 2-Fluoro-N-(6-(3-(4-fluorophenyl)-1-methyl-5-morpholino-1H-pyrazol-4-yl)imidazo[1,2-b]pyridazin-2-yl)isonicotinamide], for which, in assay [1], the 50% inhibitory concentration (IC50) came out at 2 nM.

In assay [1], `Cn1nc(-c2ccc(F)cc2)c(-c2ccc3nc(NC(=O)c4ccnc(F)c4)cn3n2)c1N1CCN(C(=O)C2CC2)CC1` [Compound 122, N-(6-(5-(4-(Cyclopropanecarbonyl)piperazin-1-yl)-3-(4-fluorophenyl)-1-methyl-1H-pyrazol-4-yl)imidazo[1,2-b]pyridazin-2-yl)-2-fluoroisonicotinamide] gave an IC50 of 0.5 nM.

Regarding `Cn1cc(-c2ccc3nc(NC(=O)c4ccnc(C(C)(C)C)c4)cn3n2)c(-c2ccc(F)cc2)n1` [Compound 50, 2-(tert-butyl)-N-(6-(3-(4-fluorophenyl)-1-methyl-1H-pyrazol-4-yl)imidazo[1,2-b]pyridazin-2-yl)isonicotinamide], the IC50 in assay [2] came to 99.9 nM.

In assay [2], `Cn1cc(-c2ccc3nc(NC(=O)C4CCCCC4)cn3n2)c(-c2ccc(F)cc2)n1` [Compound 87, N-(6-(3-(4-fluorophenyl)-1-methyl-1H-pyrazol-4-yl)imidazo[1,2-b]pyridazin-2-yl)cyclohexanecarboxamide] returned an IC50 of 11.3 nM.

As for `Cn1cc(-c2ccc3nc(NC(=O)c4cncc(Cl)c4)cn3n2)c(-c2ccc(F)cc2)n1` [Compound 46, 5-chloro-N-(6-(3-(4-fluorophenyl)-1-methyl-1H-pyrazol-4-yl)imidazo[1,2-b]pyridazin-2-yl)nicotinamide], the IC50 in assay [1] is 4.1 nM.

`Cn1cc(C(=O)Nc2cn3nc(-c4cn(C)nc4-c4ccc(F)cc4)ccc3n2)cn1` [Compound 98, N-(6-(3-(4-fluorophenyl)-1-methyl-1H-pyrazol-4-yl)imidazo[1,2-b]pyridazin-2-yl)-1-methyl-1H-pyrazole-4-carboxamide] came in with a concentration for half-maximal inhibition (IC50) in assay [1] of 2.6 nM.

Consider `Cn1nc(-c2ccc(F)cc2)c(-c2ccc3nc(NC(=O)c4ccncc4)cn3n2)c1C1CCN(Cc2cscn2)CC1` [Compound 171, N-(6-(3-(4-fluorophenyl)-1-methyl-5-(1-(thiazol-4-ylmethyl)piperidin-4-yl)-1H-pyrazol-4-yl)imidazo[1,2-b]pyridazin-2-yl) isonicotinamide], for which half-maximal inhibition in assay [1] (IC50) was put at 3.6 nM.
